Reference: patent publication US6500849B1, “1-alkyl-, 1-alkenyl-, and 1-alkynylaryl-2-amino 1,3-propanediols and related compounds” (Aventis Pharmaceuticals Inc., priority 1990, dated 2002)

Key:
[1] = tested on: female Swiss Webster mice; assay: TPA-induced ear edema assay; type: in vivo; details: 10 μg/ear topical, after about 5 hours
Protocol: In the TPA-induced ear edema assay, TPA (12-O-tetradecanoylphorbol-13-acetate) was dissolved in 30/70 propylene glycol/ethanol and was applied to the right ear of groups of 6 female Swiss Webster mice, which were housed together in a cage under standard conditions for 1 week prior to use with food and water ad lib, at a volume of 20 μl so that a total of 10 μg of TPA is delivered to the inner and outer surfaces of the ear. The test compound was dissolved in the vehicle and was applied to the right ear (the inner and outer surface) at a volume of 20 μl so that a total of 10 μg of the compound was delivered to the ear. After about 5 hours, the animals were sacrificed, a 4 mm diameter plug was taken from each ear and weighed. The difference between the right and left ear plug weights for each animal was determined. The antiinflammatory activity of the test compound is expressed as the mean percent change in the ear plug weight of the treated animals compared to the mean percent change in the plug weight of the control animals.

Bact. fragilis = assay: Anerobic antibacterial assay (agar dilution, Wilkins-Chalgren agar); type: cell-based; details: anaerobic, 48 hours at 37° C.
Bact. ovatus = assay: as above; type: cell-based; details: Bact. ovatus 103; anaerobic; 48 hours at 37° C.
Bact. vulgatus = assay: as above; type: cell-based; details: Bact. vulgatus 1446; anaerobic; 48 hours at 37° C.
Bact. thetaiotaom. = assay: as above; type: cell-based; details: anaerobic, 48 hours at 37° C.
Bact. distasonis = assay: as above; type: cell-based; details: Bact. distasonis 1366; anaerobic; 48 hours at 37° C.
Fusobact. varium = assay: as above; type: cell-based; details: anaerobic, 48 hours at 37° C.
Spaeroph. freundii = assay: as above; type: cell-based; details: Spaeroph. freundii 1369; anaerobic; 48 hours at 37° C.
Peptostr. anaerobius = assay: as above; type: cell-based; details: Peptostr. anaerobius 932; anaerobic; 48 hours at 37° C.
Propionibact. acnes = assay: as above; type: cell-based; details: anaerobic, 48 hours at 37° C.
Clost. tetani = assay: as above; type: cell-based; details: Clost. tetani 19406; anaerobic; 48 hours at 37° C.
Clost. perfringens = assay: microbe, parasite or virus in culture; type: cell-based; details: Clost. perfringens 194; anaerobic; 48 hours at 37° C.
Aspergillus Niger = assay: Antifungal assay (microtitration technique); type: cell-based; details: Aspergillus Niger strain 500/284; 5 days at 30° C.
Protocol: (§1) The microtiter plate is prepared as follows: The wells are each filled (2 rows/strain) with 50 μl neopeptone-dextrose broth (12-channel pipette). In addition, one row/strain is coated with 50 μl yeast-nitrogen base/well for yeasts and moulds. […] All wells are then inoculated with 150 μl standardized organism suspension (yeasts: 1×10^3 organisms/ml suspension; cutaneous fungi and moulds: 1.6×10^5 organisms/ml suspension); the total volume is 200 μl per well. There is also a growth control (inoculated, not medicated), a solvent control (inoculated, not medicated, containing solvent as in medicated rows) and a negative control (not inoculated, not medicated). Incubation for 5 days at 30° C. is followed by photometric evaluation. The obtained measurements are checked visually (macroscopically and microscopically) and corrected where necessary. Criteria for Evaluation of the Antimycotic Effect a. Photometric measurements (matrix method) b. Growth, macroscopic evaluation c. Growth, microscopic evaluation (inversion light microscope, magn. 64×).

Candida Albicans = assay: Antifungal assay (microtitration technique); type: cell-based; details: Candida Albicans strain 200/175; 5 days at 30° C.
Protocol: as §1

Microsporum Canis = assay: Antifungal assay (microtitration technique); type: cell-based; details: Microsporum Canis strain 150/353; 5 days at 30° C.
Protocol: as §1

[2] = tested on: Trichophyton Mentagrophytes; assay: Antifungal assay (microtitration technique); type: cell-based; details: Trichophyton Mentagrophytes strain 100/25; 5 days at 30° C.
Protocol: as §1

Trichophyton Rubrum = assay: Antifungal assay (microtitration technique); type: cell-based; details: Trichophyton Rubrum strain 101/85; 5 days at 30° C.
Protocol: as §1

Trichophyton Vaginalis = assay: Antifungal assay (microtitration technique); type: cell-based; details: Trichophyton Vaginalis strain 111/216; 5 days at 30° C.
Protocol: as §1

[3] = tested on: female Swiss Webster mice; assay: Arachidonic acid-induced ear edema assay; type: in vivo; details: 1 mg/ear topical, arachidonic acid 4 mg/ear
Protocol: In the arachidonic acid-induced ear edema assay, the test compound was dissolved in 30/70 propylene glycol/ethanol and was applied to both ears of groups of 6 female Swiss Webster mice, which were housed together in a cage under standard conditions for 1 week prior to use with food and water ad lib, at a volume of 20 μl so that a total of 1.0 mg of test compound was delivered to each ear over the inner and outer surfaces. The same volume (20 μl) of vehicle was applied to each ear of a control group of mice. After 30 minutes, arachidonic acid was applied to the right ear of each mouse of each group in the amount of 4 mg/ear. Vehicle was applied to the left ear of each mouse of each group at a volume of 20 μl/ear. After an additional hour, the mice were sacrificed and a 4 mm plug was taken from each ear and weighed. The difference between the right and left ear plugs was determined for each animal. The antiinflammatory activity of the test compound is expressed as the mean percent change in the ear plug weight of the treated animals relative to the mean percent change in weights of control animals' ear. Antiinflammatory activity of representative compounds of the present invention as determined in this assay are presented below in Table 3.

Protein kinase C = Protein kinase C assay (32P incorporation into Type III histone); type: biochemical, rat; details: rat brain protein kinase C; phosphatidylserine/diacylglycerol stimulated; read-out: Protein Kinase Inhibitory Activity IC50
Protocol: (see U. Kikkawa, et al., Biochemical and Biophysical Research Communications, 135, 636 (1986) and R. M. Bell, et al. “Methods in Enzymology, Hormone Action,” Part J, P.M. Conn, Ed., Academic Press, Inc., New York, N.Y. 1986, page 353). Protein kinase C enzyme extract was prepared from the brain of male Wistar rats weighing 180 to 200 g and purified by the method of U. Kikkawa, et al., ibid. 636. The purified extract was stored at −80° C., and aliquots were used in the protein kinase C assay performed by a modification of the method of R. M. Bell, et al., ibid. al 354. To perform the assay, duplicate aliquots of duplicate samples are employed. Basal or unstimulated protein kinase C, phosphatidylserine/diacylglycerol stimulated protein kinase C, and test samples are run in each assay. […] The assay tubes were allowed to warm to 25° C. and an 8 μl mixture of adenosine 5′-triphosphate (100 μM) and ^32P-adenosine triphosphate (1 to 2×10^5 counts per minute) was added to each tube for a final volume of 80 μl per tube. After 2 min, the reaction (the incorporation of phosphorous into Type III histone) was terminated by spotting the assay mixture on phosphocellulose paper. The spots are cut out of the paper and the radioactivity (counts per min) of each spot was determined in a scintillation counter.

Strept. pyogenes = assay: Aerobic antibacterial assay (agar dilution, Mueller-Hinton agar); details: Strept. pyogenes 77 A; aerobic; 24 hours at 37° C.
Klebsiella spp. = assay: as above; details: Klebsiella spp. 1522E; aerobic; 24 hours at 37° C.
E. cloacae = assay: as above; details: E. cloacae 1321E; aerobic; 24 hours at 37° C.

Structure (SMILES): CCCCCCCCCCC#Cc1cccc([C@@H](O)[C@H](CO)NC(C)=O)n1 [erythro-N-{1-[6-(1-Dodecynyl)-2-pyridinyl]-1,3-dihydroxy-2-propanyl}acetamide]
- Antiinflammatory Activity Percent Decrease in Ear Plug Weight at 10 μg/ear [1]: 59%
- Antibacterial activity (MIC, mg/l) (Bact. fragilis; Bact. fragilis 312): 3.13 mg/L
- Antibacterial activity (MIC, mg/l) (Bact. fragilis; Bact. fragilis 960): 3.13 mg/L
- Antibacterial activity (MIC, mg/l) (Bact. fragilis; Bact. fragilis 1313): 6.25 mg/L
- Antibacterial activity (MIC, mg/l) (Bact. fragilis; Bact. fragilis 17390): 6.25 mg/L
- Antibacterial activity (MIC, mg/l) (Bact. fragilis; Bact. fragilis 18125): 3.13 mg/L
- Antibacterial activity (MIC, mg/l) (Bact. fragilis; Bact. fragilis 19016): 6.25 mg/L
- Antibacterial activity (MIC, mg/l) (Bact. ovatus): 3.13 mg/L
- Antibacterial activity (MIC, mg/l) (Bact. vulgatus): 3.13 mg/L
- Antibacterial activity (MIC, mg/l) (Bact. thetaiotaom.; Bact. thetaiotaom. 123): 3.13 mg/L
- Antibacterial activity (MIC, mg/l) (Bact. thetaiotaom.; Bact. thetaiotaom. 1428): 6.25 mg/L
- Antibacterial activity (MIC, mg/l) (Bact. thetaiotaom.; Bact. thetaiotaom. 1445): 6.25 mg/L
- Antibacterial activity (MIC, mg/l) (Bact. distasonis): 6.25 mg/L
- Antibacterial activity (MIC, mg/l) (Fusobact. varium; Fusobact. varium 3085): 6.25 mg/L
- Antibacterial activity (MIC, mg/l) (Fusobact. varium; Fusobact. varium 5262): 6.25 mg/L
- Antibacterial activity (MIC, mg/l) (Spaeroph. freundii): 3.13 mg/L
- Antibacterial activity (MIC, mg/l) (Peptostr. anaerobius): 6.25 mg/L
- Antibacterial activity (MIC, mg/l) (Propionibact. acnes; Propionibact. acnes 6919): 6.25 mg/L
- Antibacterial activity (MIC, mg/l) (Propionibact. acnes; Propionibact. acnes 6922): 6.25 mg/L
- Antibacterial activity (MIC, mg/l) (Clost. tetani): 12.50 mg/L
- Antibacterial activity (MIC, mg/l) (Clost. perfringens): 12.00 mg/L
- Antifungal Activity MIC (Aspergillus Niger): 125.000 µg/mL
- Antifungal Activity MIC (Candida Albicans): 125.000 µg/mL
- Antifungal Activity MIC (Microsporum Canis): 0.970 µg/mL
- Antifungal Activity MIC [2]: 7.810 µg/mL
- Antifungal Activity MIC (Trichophyton Rubrum): 31.250 µg/mL
- Antifungal Activity MIC (Trichophyton Vaginalis): 15.625 µg/mL

Structure (SMILES): CCCCCCCCCCc1cccc(C(O)C(N)CO)n1 (stereo not drawn) [erythro-2-amino-1-(6-decyl-2-pyridinyl)-1,3-dihydroxypropane]
- Antiinflammatory Activity Percent Decrease in Ear Plug Weight at 10 μg/ear [1]: 66%
- Antiinflammatory Activity Percent Decrease in Ear Plug Weight at 1 mg/ear [3]: 32%
- IC50 (Protein kinase C): 48 µM
- Antibacterial activity (MIC, mg/l) (Fusobact. varium; Fusobact. varium 3085): 12.50 mg/L
- Antibacterial activity (MIC, mg/l) (Propionibact. acnes; Propionibact. acnes 6922): 12.50 mg/L
- Antibacterial activity (MIC, mg/l) (Strept. pyogenes): 6.25 mg/L
- Antibacterial activity (MIC, mg/l) (Klebsiella spp.): 12.50 mg/L
- Antibacterial activity (MIC, mg/l) (E. cloacae): 12.50 mg/L
